Experimental data: the supplement of paper PMC10307832

Legend:
Experiment in all cases: relative viability (nuclei count vs DMSO), 5 days (fraction); higher = more cells survive
RU-SKI 43 + Linsitinib = compound: CC[C@@H](C)CNCC(=O)N1CCC2=C([C@@H]1COC3=CC=CC(=C3)C)C=CS2 [RU-SKI 43] + C[C@]1(O)C[C@@H](c2nc(-c3ccc4ccc(-c5ccccc5)nc4c3)c3c(N)nccn32)C1 [Linsitinib] (partner 1 µM)
Outline: (§1)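 Each reported value is a median over duplicate plates. It expresses relative viability: treated-well nuclei count divided by vehicle-well nuclei count. Lung cancer cell lines in 1536-well plates were dosed by pin tool a day after seeding, alone with one drug or with a fixed anchor-drug dose plus five library-drug doses (not always all listed) in √10 steps, and nuclei were counted after 5 days.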

RU-SKI 43 + Decitabine = compound: CC[C@@H](C)CNCC(=O)N1CCC2=C([C@@H]1COC3=CC=CC(=C3)C)C=CS2 [RU-SKI 43] + Nc1ncn([C@H]2C[C@H](O)[C@@H](CO)O2)c(=O)n1 [Decitabine] (partner 2 µM)
Outline: as §1

Irinotecan + OSI-027 = compound: CCc1c2c(nc3ccc(OC(=O)N4CCC(N5CCCCC5)CC4)cc13)-c1cc3c(c(=O)n1C2)COC(=O)[C@]3(O)CC [Irinotecan] + COc1cccc2cc(-c3nc([C@H]4CC[C@H](C(=O)O)CC4)n4ncnc(N)c34)[nH]c12 [OSI-027] (partner 0.5 µM)
Outline: as §1

MK-8033 + Foretinib = compound: Cn1cc(-c2cnc3ccc4ccc(CS(=O)(=O)NCc5ccccn5)cc4c(=O)c3c2)cn1 [MK-8033] + COc1cc2c(Oc3ccc(NC(=O)C4(C(=O)Nc5ccc(F)cc5)CC4)cc3F)ccnc2cc1OCCCN1CCOCC1 [Foretinib] (partner 0.25 µM)
Outline: as §1

UMC-11
relative viability (RU-SKI 43 + Linsitinib; first compound 0.1 µM): 1.11
relative viability (RU-SKI 43 + Linsitinib; first compound 0.3162 µM): 1.21
relative viability (RU-SKI 43 + Linsitinib; first compound 1 µM): 1.07
relative viability (RU-SKI 43 + Linsitinib; first compound 3.162 µM): 1.04
relative viability (RU-SKI 43 + Linsitinib; first compound 10 µM): 1.07
relative viability (RU-SKI 43 + Decitabine; first compound 0.1 µM): 0.668
relative viability (RU-SKI 43 + Decitabine; first compound 0.3162 µM): 0.614
relative viability (RU-SKI 43 + Decitabine; first compound 1 µM): 0.675
relative viability (RU-SKI 43 + Decitabine; first compound 3.162 µM): 0.619
relative viability (RU-SKI 43 + Decitabine; first compound 10 µM): 0.64
relative viability (Irinotecan + OSI-027; first compound 0.6325 µM): 0.461
relative viability (Irinotecan + OSI-027; first compound 2 µM): 0.475
relative viability (Irinotecan + OSI-027; first compound 6.325 µM): 0.279
relative viability (Irinotecan + OSI-027; first compound 20 µM): 0.155
relative viability (MK-8033 + Foretinib; first compound 0.02 µM): 1.08
relative viability (MK-8033 + Foretinib; first compound 0.06325 µM): 1.04
relative viability (MK-8033 + Foretinib; first compound 0.2 µM): 0.989
relative viability (MK-8033 + Foretinib; first compound 2 µM): 1.08
